Test results from patent publication US4067997A, “Synergistic microbecidal composition and method” (priority 1976, dated 1978).
Values after ≈ are worked out from the molar mass of the structure shown. Counter-ions that a name gives are not always drawn. Like-named read-outs stand apart in the source and are kept apart here.

Experiments:
Experiment in all cases: MIC on mass basis (Example V procedure)
[1] = test system: Candida albicans; assay type: cell-based
Description: (§1) The essential procedure of Example I was followed with a series of phenolic compounds, with the exception that the test method was conducted on a mass (μg/ml) basis rather than a molecular (mol/ml) basis of the foregoing tests, since the long established phenol-coeffecient test is on a mass rather than molecular basis. Additionally, a different but closely related group of organisms were used in this test, in order to give a complete representative span on gram-negative, gram-positive and fungus organisms. Additionally, the phenolic derivatives chosen for test purposes include a number of derivatives which are presently accepted by the FDA as food-grade phenolic microbicides.
(§2) The same procedure of Example V was repeated but with combinations of mono-laurin (GML).
(§3) The procedure of Example V was repeated with combinations of glycerol mono-laurin (GML) and ethylenediamine tetraacetic acid (EDTA) as the calcium salt and in combination with BHA.

[2] = test system: Escherichia coli; assay type: cell-based
Description: as §1, §2, §3

[3] = test system: Nocardia asteroides; assay type: cell-based
Description: as §1, §2, §3

[4] = test system: Pseudomonas aeruginosa; assay type: cell-based
Description: as §1, §2, §3

[5] = test system: Saccharomyces cerevisiae; assay type: cell-based
Description: as §1, §2, §3

[6] = test system: Staphylococcus aureus; assay type: cell-based
Description: as §1, §2, §3

[7] = test system: Streptococcus agalactiae; assay type: cell-based
Description: as §1, §2, §3

[8] = test system: Streptococcus mutans; assay type: cell-based, Streptococcus mutans (ATCC 10441)
Description: as §1, §2, §3

[9] = test system: Corynebacterium sp.; assay type: cell-based
Description: as §1

[10] = Candida albicans, Table 11, Candida albicans, read-out: MIC
[11] = Escherichia coli, Table 11, Escherichia coli, read-out: MIC
[12] = Table 11, Nocardia asteroides, read-out: MIC
[13] = Pseudomonas aeruginosa, Table 11, Pseudomonas aeruginosa, read-out: MIC
[14] = Staphylococcus aureus, Table 11, Staphylococcus aureus, read-out: MIC
[15] = Streptococcus agalactiae, Table 11, Strepococcus agalactiae, read-out: MIC
[16] = Streptococcus mutans, Table 11, Strepococcus mutans, read-out: MIC
[17] = Table 11, Corynebacterium sp., read-out: MIC

3(2)-tert-butyl-4-methoxyphenol [BHA] gave an MIC ([1]; Table 11, Candida albicans) of 125 µg/mL, an MIC ([1]; Table 13, Candida albicans) of 125 µg/mL and an MIC ([1]; Table 14, Candida albicans) of 125 µg/mL. The MIC ([2]; Table 11, Escherichia coli) was > 1,000 μg/ml, the MIC ([2]; Table 13, Escherichia coli) was 500 µg/mL and the MIC ([2]; Table 14, Escherichia coli) was 500 µg/mL. For the same compound, the MIC ([3]; Table 11, Nocardia asteroides) was 125 µg/mL, the MIC ([3]; Table 13, Nocardia asteroides) was 62.50 µg/mL and the MIC ([3]; Table 14, Nocardia asteroides) was 62.50 µg/mL. The MIC ([4]; Table 11, Pseudomonas aeruginosa) was > 1,000 μg/ml, the MIC ([4]; Table 13, Pseudomonas aeruginosa) was > 1,000 μg/ml and the MIC ([4]; Table 14, Pseudomonas aeruginosa) was > 1,000 μg/ml. It also gave an MIC ([5]; Table 13, Saccharomyces cerevisiae) of 125 µg/mL, an MIC ([5]; Table 14, Saccharomyces cerevisiae) of 125 µg/mL and an MIC ([6]; Table 11, Staphylococcus aureus) of 125 µg/mL. The MIC ([6]; Table 13, Staphylococcus aureus) was 125 µg/mL, the MIC ([6]; Table 14, Staphylococcus aureus) was 125 µg/mL and the MIC ([7]; Table 11, Strepococcus agalactiae) was 125 µg/mL. The MIC ([7]; Table 13, Streptococcus agalactiae) was 62.50 µg/mL, the MIC ([7]; Table 14, Streptococcus agalactiae) was 62.50 µg/mL and the MIC ([8]; Table 11, Strepococcus mutans) was 62.50 µg/mL. For the same compound, the MIC ([8]; Table 13, Streptococcus mutans) was 62.50 µg/mL, the MIC ([8]; Table 14, Streptococcus mutans) was 62.50 µg/mL and the MIC ([9]; Table 11, Corynebacterium sp.) was 62.50 µg/mL.

With `CC(C)(C)c1ccc(C(C)(C)C)c(O)c1` [2,5-di-tert-butylphenol] the MIC ([1]; Candida albicans) was > 1000 µg/mL, the MIC ([2]; Escherichia coli) was > 1000 µg/mL and the MIC ([3]; Nocardia asteroides) was 7.8 µg/mL. For the same compound, the MIC ([4]; Pseudomonas aeruginosa) was > 1000 µg/mL, the MIC ([5]; Saccharomyces cerevisiae) was 62.5 µg/mL and the MIC ([6]; Staphylococcus aureus) was 62.5 µg/mL. It also gave an MIC ([7]; Streptococcus agalactiae) of 15.6 µg/mL, an MIC ([8]; Streptococcus mutans) of 7.8 µg/mL and an MIC ([9]; Corynebacterium) of 7.8 µg/mL (≈ 37.8 µM).

For `CC(C)(C)c1cc(C(C)(C)C)c(O)c(C(=O)O)c1O` [3,5-di-tert-butyl-2,6-dihydroxbenzoic], the MIC [1, 10] was 500 µg/mL, the MIC [2, 11] was > 1000 µg/mL and the MIC [3, 12] was 15.6 µg/mL. For the same compound, the MIC [4, 13] was > 1000 µg/mL, the MIC ([5]; Saccharomyces cerevisiae) was 500 µg/mL and the MIC [6, 14] was 31.2 µg/mL. The MIC [7, 15] was 15.6 µg/mL, the MIC [8, 16] was 31.2 µg/mL and the MIC [9, 17] was 15.6 µg/mL (≈ 58.6 µM).

In the case of `CC(C)(C)c1cc(O)cc(C(C)(C)C)c1` [3,5-di-tert-butylphenol], the MIC ([1]; Candida albicans) is reported as 62.5 µg/mL, the MIC ([2]; Escherichia coli) is reported as > 1000 µg/mL and the MIC ([3]; Nocardia asteroides) is reported as 15.6 µg/mL. The MIC ([4]; Pseudomonas aeruginosa) was > 1000 µg/mL, the MIC ([5]; Saccharomyces cerevisiae) was 62.5 µg/mL and the MIC ([6]; Staphylococcus aureus) was 31.2 µg/mL. The MIC ([7]; Streptococcus agalactiae) was 31.2 µg/mL, the MIC ([8]; Streptococcus mutans) was 15.6 µg/mL and the MIC ([9]; Corynebacterium) was 15.6 µg/mL (≈ 75.6 µM).

For `CC(C)(C)c1cc(C(C)(C)C)c(O)cc1O` [4,6-di-tert-butylresorcinol], the MIC [1, 10] was 62.5 µg/mL, the MIC [2, 11] was > 1000 µg/mL and the MIC [3, 12] was 7.8 µg/mL. The MIC [4, 13] was > 1000 µg/mL, the MIC ([5]; Saccharomyces cerevisiae) was 15.6 µg/mL and the MIC [6, 14] was 15.6 µg/mL. It also gave an MIC [7, 15] of 15.6 µg/mL, an MIC [8, 16] of 7.8 µg/mL and an MIC [9, 17] of 7.8 µg/mL (≈ 35.1 µM).

`O=C(O)CN(CCN(CC(=O)O)CC(=O)O)CC(=O)O` [EDTA (N2 Ca salt), ethylenediamine tetraacetic acid] was tested, and the MIC ([1]; Candida albicans) was > 1000 µg/mL, the MIC ([2]; Escherichia coli, Table 14, Escherichia coli) was < 1000 µg/mL and the MIC ([3]; Nocardia asteroides) was 1000 µg/mL. The MIC ([4]; Pseudomonas aeruginosa) was > 1000 µg/mL, the MIC ([5]; Saccharomyces cerevisiae, Table 14, Saccharomyces cerevisiae, read-out: MIC) was > 1000 µg/mL and the MIC ([6]; Staphylococcus aureus) was > 1000 µg/mL. The MIC ([7]; Streptococcus agalactiae) was > 1000 µg/mL and the MIC ([8]; Streptococcus mutans) was 500 µg/mL.
